The values that follow come from article PMC7934925, “A GRM7 mutation associated with developmental delay reduces mGlu7 expression and produces neurological phenotypes” (JCI Insight, 2021).

SMILES strings stand for the structures.

The target of one experiment is T1, mGlu7 (HA-mGlu7-I154T) (Homo sapiens, UniProt Q14831, I154T).
T1 construct: gene GRM7; full-length human mGlu7a isoform, HA-tagged, I154T, stably expressed in HEK/GIRK cells
The experiment in a line: thallium flux assay (GIRK) in HEK cells stably expressing the receptor, agonist concentration-response. In kind it is cell-based.

A further experiment deals with T2, mGlu7 (HA-mGlu7-WT) (Homo sapiens, UniProt Q14831).
T2 construct: gene GRM7; full-length human mGlu7a isoform (NM_000844.4), HA-tagged, stably expressed in HEK/GIRK cells
T2 sequence (Q14831 35-915): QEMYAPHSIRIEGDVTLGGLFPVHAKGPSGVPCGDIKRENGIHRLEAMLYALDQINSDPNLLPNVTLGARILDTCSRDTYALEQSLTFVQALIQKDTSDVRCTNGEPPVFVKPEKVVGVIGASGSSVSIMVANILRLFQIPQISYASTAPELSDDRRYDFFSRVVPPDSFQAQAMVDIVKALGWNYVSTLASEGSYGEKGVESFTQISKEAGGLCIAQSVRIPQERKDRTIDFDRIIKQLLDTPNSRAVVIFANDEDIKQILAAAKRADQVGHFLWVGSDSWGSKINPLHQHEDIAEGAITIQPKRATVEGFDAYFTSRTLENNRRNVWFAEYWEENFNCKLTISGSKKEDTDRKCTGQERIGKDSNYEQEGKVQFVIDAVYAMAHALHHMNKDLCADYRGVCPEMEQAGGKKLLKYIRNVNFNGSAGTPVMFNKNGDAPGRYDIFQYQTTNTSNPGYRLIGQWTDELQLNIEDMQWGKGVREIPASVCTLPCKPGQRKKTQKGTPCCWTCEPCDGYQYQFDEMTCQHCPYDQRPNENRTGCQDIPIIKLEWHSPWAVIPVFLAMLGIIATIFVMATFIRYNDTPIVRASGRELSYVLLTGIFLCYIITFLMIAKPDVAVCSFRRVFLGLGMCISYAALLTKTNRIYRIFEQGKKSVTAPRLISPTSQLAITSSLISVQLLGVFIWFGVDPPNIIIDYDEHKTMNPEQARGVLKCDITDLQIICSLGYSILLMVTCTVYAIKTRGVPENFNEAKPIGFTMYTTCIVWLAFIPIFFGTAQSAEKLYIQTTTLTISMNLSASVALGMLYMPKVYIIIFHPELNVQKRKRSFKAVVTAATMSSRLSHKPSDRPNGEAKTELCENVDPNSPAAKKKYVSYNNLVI
Described as above. It is filed as cell-based.

A word on the EC50: it is the concentration giving half of the maximal effect. Read a low EC50 as greater potency.

T1 sequence (Q14831 35-915 I154T): as the sequence (Q14831 35-915) above, with I120T counted along it

Turning to `N[C@@H](CCP(=O)(O)O)C(=O)O` [L-AP4], the EC50 at mGlu7 (HA-mGlu7-I154T) turned out to be 540 µM; at mGlu7 (HA-mGlu7-WT), 176 µM.
